In general, IC50 refers to the midpoint of a concentration-inhibition curve.

Structures are written as SMILES.

For this test, the target named is recombinant CaMKIIδ (Homo sapiens (Human), UniProt Q13557). Put plainly: CaMKIIδ biochemical assay (HTRF). The settings on record: 10 pM CaMKIIδ, 110 nM calmodulin, 12 μM ATP, 1 hour; read-out: CAMKIID-HTRF-384V2 (IC50 - nM). The method, then: CaMKIIδ Biochemical Assay
The biochemical activity of recombinant CaMKIIδ was measured by monitoring the phosphorylation of a target peptide using Homogenous Time Resolved Fluorescence (HTRF) technology from CisBio Bioassays.
In general terms: Time-resolved FRET reads energy transfer from a long-lived donor to a nearby acceptor.

Regarding `CCN(CC)[C@@H](C)CNC(=O)c1cc(OC[C@H](C)OC)nc(-c2cnn3ccc(-c4cccs4)nc23)c1` [Example 344, N—((S)-2-(diethylamino)propyl)-2-((S)-2-methoxypropoxy)-6-(5-(thiophen-2-yl)pyrazolo[1,5-a]pyrimidin-3-yl)isonicotinamide], the IC50 worked out at 0.56 nM.

Take `CCCNC(CNC(=O)c1ccnc(-c2cnn3ccc(-c4ccccc4)nc23)c1)C(C)C` (centres unmarked) [Example 53, N-(3-methyl-2-(propylamino)butyl)-2-(5-phenylpyrazolo[1,5-a]pyrimidin-3-yl)isonicotinamide]: the IC50 amounted to 4.79 nM.

For the compound `NCC1CC(F)(F)CN1C(=O)c1ccnc(-c2cnn3ccc(-c4cccs4)nc23)c1` (stereo in doubt) [Example 78, (S)-(2-(aminomethyl)-4,4-difluoropyrrolidin-1-yl)(2-(5-(thiophen-2-yl)pyrazolo[1,5-a]pyrimidin-3-yl)pyridin-4-yl)methanone], the IC50 came out at 9.44 nM.

In the case of `CCN(CC)c1cc(C(=O)NC[C@H](C)N(CC)CC)cc(-c2cnn3ccc(-c4cccs4)nc23)n1` [Example 260, (S)-2-(diethylamino)-N-(2-(diethylamino)propyl)-6-(5-(thiophen-2-yl)pyrazolo[1,5-a]pyrimidin-3-yl)isonicotinamide], the IC50 stood at 1.71 nM.

In the case of `CCN(CC)[C@@H](C)CNC(=O)c1cc(NC[C@@H](C)O)nc(-c2cnn3ccc(-c4cccs4)nc23)c1` [Example 202, N—((S)-2-(diethylamino)propyl)-2-(((R)-2-hydroxypropyl)amino)-6-(5-(thiophen-2-yl)pyrazolo[1,5-a]pyrimidin-3-yl)isonicotinamide], the IC50 is 0.14 nM.

On to `CCN(CC)[C@@H](C)CNC(=O)c1cc(NCCN2CC(F)(F)C2)nc(-c2cnn3ccc(-c4cccs4)nc23)c1` [Example 224, (S)—N-(2-(diethylamino)propyl)-2-((2-(3,3-difluoroazetidin-1-yl)ethyl)amino)-6-(5-(thiophen-2-yl)pyrazolo[1,5-a]pyrimidin-3-yl)isonicotinamide], for which the IC50 came out at 0.21 nM.

As for `CCNC(C)(C)CNC(=O)c1ccnc(-c2cnn3ccc(-c4ccccc4)nc23)c1` [Example 67, N-(2-(ethylamino)-2-methylpropyl)-2-(5-phenylpyrazolo[1,5-a]pyrimidin-3-yl)isonicotinamide], the half-maximal inhibitory concentration (IC50) is 102 nM.

Take `CCN(CC)[C@@H](C)CNC(=O)c1cc(-c2c[nH]nc2C(F)(F)F)nc(-c2cnn3ccc(-c4cccs4)nc23)c1` [Example 334, (S)—N-(2-(diethylamino)propyl)-2-(5-(thiophen-2-yl)pyrazolo[1,5-a]pyrimidin-3-yl)-6-(3-(trifluoromethyl)-1H-pyrazol-4-yl)isonicotinamide]: the IC50 was found to be 0.19 nM.

As to `CCN(CC)[C@@H](C)CNC(=O)c1cc(-c2cnn3ccc(-c4cccs4)nc23)nc(N2CC(O)(C3CC3)C2)c1` [Example 217, (S)-2-(3-cyclopropyl-3-hydroxyazetidin-1-yl)-N-(2-(diethylamino)propyl)-6-(5-(thiophen-2-yl)pyrazolo[1,5-a]pyrimidin-3-yl)isonicotinamide], the IC50 came out at 0.18 nM.

As to `CCN(CC)[C@@H](C)CNC(=O)c1cc(NCCN(C)C)nc(-c2cnn3ccc(-c4ccccc4)nc23)c1` [Example 158, (S)—N-(2-(diethylamino)propyl)-2-((2-(dimethylamino)ethyl)amino)-6-(5-phenylpyrazolo[1,5-a]pyrimidin-3-yl)isonicotinamide], the half-maximal inhibitory concentration (IC50) is 0.56 nM.

Turning to `CCN(CC)[C@@H](C)CNC(=O)c1cc(-c2cnn3ccc(-c4cccs4)nc23)nc(N2CCC(C)(O)CC2)c1` [Example 163, (S)—N-(2-(diethylamino)propyl)-2-(4-hydroxy-4-methylpiperidin-1-yl)-6-(5-(thiophen-2-yl)pyrazolo[1,5-a]pyrimidin-3-yl)isonicotinamide], the IC50 was 0.18 nM.

Source of the values: US10100058B2, “Fused heterocyclic compounds as CaM kinase inhibitors” (Gilead Sciences, Inc., priority 2016, dated 2018).
